Test results as given in patent US20080069913A1, “Anti-Snoring Composition” (PERSEE MEDICA,, priority 2004, published 2008).

How the values were obtained:
[1] = flow time (rate of flow) over 10 cm on a plane tilted at 45°; assay type: physicochemical; settings: 0.5 ml, plate tilted 45°
Procedure: (§1) Three types of tests were performed: flow measurement on a biological membrane, the test of immersion in artificial saliva and the salting-out test. The rate of flow is the time it takes a given volume of liquid to travel 10 centimetres across a plane tilted at 45°. The saliva immersion test aims to highlight the contact time of the product with the biological membrane when it is subjected to the effect of saliva. Finally, the salting-out test aims to highlight the time it takes the product to salt out a tracer when it is subject to permanent “leaching” by the saliva. These three tests are described in full in the scientific literature and are reference tests for measuring the time a solution remains at its site of action in experimental conditions approximating the physiological conditions of the pharyngeal mucosa.
The composition (bioadhesive preparation) was examined under experimental conditions to verify its bioadhesive properties and compare them to a non-bioadhesive reference substance (distilled water) and a liposome-based commercial preparation (liposome preparation). The measurements carried out included flow time on a biological membrane and immersion in artificial saliva.
The rate of flow is the time it takes for a given volume of liquid to travel 10 cm over a plane tilted at 45°. This test was performed on 3 levels: • on a 20 cm^2 stainless-steel plate, non-biological membrane; • on a 20 cm^2 stainless-steel plate covered with a cellulose membrane, biological membrane; • on a 20 cm^2 stainless-steel plate covered in a cellulose membrane impregnated with a 5% mucin solution.
For this study, 0.5 ml was deposited 0.5 cm from the top edge of the plate, the deposit being made in horizontal position. The chronometer starting line is located 5 cm from the top edge of the plate when the liquid crosses it after tilting the plate to 45°. In the same way, the chronometer stopping line is located 5 cm from the bottom edge of the plate when the liquid crosses it.

[2] = artificial saliva immersion test; assay type: physicochemical; settings: membrane covered in mucin, submerged vertically in 2 litres of artificial saliva
Procedure: as §1
The aim of the artificial saliva immersion test is to show the contact time of the product with the biological membrane when subjected to the effect of saliva. As before, the product is deposited on the surface of a biological membrane covered in mucin. After flowing over a distance of 10 cm, the plate/biological membrane/product assembly is submerged vertically in a container with 2 litres of artificial saliva. The time the product remains on the surface of the membrane is determined using a chronometer.

O [Distilled water]
<1″: flow time, Stainless-steel support ([1]; 20 cm^2 stainless-steel plate, non-biological) | flow time, Stainless-steel + membrane + mucin ([1]; cellulose membrane impregnated with 5% mucin solution) | flow time, Stainless-steel + membrane ([1]; stainless-steel plate covered with cellulose membrane) | time the product remains on the surface of the membrane [2]
